Assay results as given in ChEMBL document CHEMBL3603774, “Novel 5-functionalized-pyrazoles: Synthesis, characterization and pharmacological screening” (Bioorg Med Chem Lett, 2015).
≈ marks a conversion by molar mass, not a printed value.

tested on: Bacillus cereus; test: Antibacterial activity against Bacillus cereus MTCC 8372 at 50 ug/ml after 24 hrs by disc diffusion method; format: functional; conditions: MTCC 8372, 24 h, read-out: IZ

Compound	zone of inhibition at 50 µg/mL [mm]
CCOC(=O)c1c(-c2ccccc2)nn(-c2ccccc2)c1COCc1c(-c2ccc(F)cc2)nc(N(C)S(C)(=O)=O)nc1C(C)C	8

tested on: Bacillus cereus; test: Antibacterial activity against Bacillus cereus MTCC 8372 at 100 ug/ml after 24 hrs by disc diffusion method; format: functional; conditions: MTCC 8372, 24 h, read-out: IZ

Compound	zone of inhibition at 100 µg/mL [mm]
CCOC(=O)c1c(-c2ccccc2)nn(-c2ccccc2)c1COCc1c(-c2ccc(F)cc2)nc(N(C)S(C)(=O)=O)nc1C(C)C	20

tested on: Staphylococcus aureus; test: Antibacterial activity against Staphylococcus aureus MTCC 96 at 50 ug/ml after 24 hrs by disc diffusion method; format: functional; conditions: MTCC 96, 24 h, read-out: IZ

Compound	zone of inhibition at 50 µg/mL [mm]
CCOC(=O)c1c(-c2ccccc2)nn(-c2ccccc2)c1COCc1c(-c2ccc(F)cc2)nc(N(C)S(C)(=O)=O)nc1C(C)C	6

tested on: Staphylococcus aureus; test: Antibacterial activity against Staphylococcus aureus MTCC 96 at 100 ug/ml after 24 hrs by disc diffusion method; format: functional; conditions: MTCC 96, 24 h, read-out: IZ

Compound	zone of inhibition at 100 µg/mL [mm]
CCOC(=O)c1c(-c2ccccc2)nn(-c2ccccc2)c1COCc1c(-c2ccc(F)cc2)nc(N(C)S(C)(=O)=O)nc1C(C)C	19

tested on: Escherichia coli; test: Antibacterial activity against Escherichia coli MTCC 724 at 50 ug/ml after 24 hrs by disc diffusion method; format: functional; conditions: MTCC 724, 24 h, read-out: IZ

Compound	zone of inhibition at 50 µg/mL [mm]
CCOC(=O)c1c(-c2ccccc2)nn(-c2ccccc2)c1COCc1c(-c2ccc(F)cc2)nc(N(C)S(C)(=O)=O)nc1C(C)C	3

tested on: Escherichia coli; test: Antibacterial activity against Escherichia coli MTCC 724 at 100 ug/ml after 24 hrs by disc diffusion method; format: functional; conditions: MTCC 724, 24 h, read-out: IZ

Compound	zone of inhibition at 100 µg/mL [mm]
CCOC(=O)c1c(-c2ccccc2)nn(-c2ccccc2)c1COCc1c(-c2ccc(F)cc2)nc(N(C)S(C)(=O)=O)nc1C(C)C	10

tested on: Klebsiella pneumoniae; test: Antibacterial activity against Klebsiella pneumoniae MTCC 3384 at 50 ug/ml after 24 hrs by disc diffusion method; format: functional; conditions: MTCC 3384, 24 h, read-out: IZ

Compound	zone of inhibition at 50 µg/mL [mm]
CCOC(=O)c1c(-c2ccccc2)nn(-c2ccccc2)c1COCc1c(-c2ccc(F)cc2)nc(N(C)S(C)(=O)=O)nc1C(C)C	8

tested on: Klebsiella pneumoniae; test: Antibacterial activity against Klebsiella pneumoniae MTCC 3384 at 100 ug/ml after 24 hrs by disc diffusion method; format: functional; conditions: MTCC 3384, 24 h, read-out: IZ

Compound	zone of inhibition at 100 µg/mL [mm]
CCOC(=O)c1c(-c2ccccc2)nn(-c2ccccc2)c1COCc1c(-c2ccc(F)cc2)nc(N(C)S(C)(=O)=O)nc1C(C)C	10

tested on: Aspergillus flavus; test: Antifungal activity against Aspergillus flavus MTCC 873 at 50 ug/ml after 24 hrs by disc diffusion method; format: functional; conditions: MTCC 873, 24 h, read-out: IZ

Compound	zone of inhibition at 50 µg/mL [mm]
CCOC(=O)c1c(-c2ccccc2)nn(-c2ccccc2)c1COCc1c(-c2ccc(F)cc2)nc(N(C)S(C)(=O)=O)nc1C(C)C	12

tested on: Aspergillus flavus; test: Antifungal activity against Aspergillus flavus MTCC 873 at 100 ug/ml after 24 hrs by disc diffusion method; format: functional; conditions: MTCC 873, 24 h, read-out: IZ

Compound	zone of inhibition at 100 µg/mL [mm]
CCOC(=O)c1c(-c2ccccc2)nn(-c2ccccc2)c1COCc1c(-c2ccc(F)cc2)nc(N(C)S(C)(=O)=O)nc1C(C)C	6

tested on: Aspergillus niger; test: Antifungal activity against Aspergillus niger MTCC 281 at 50 ug/ml after 24 hrs by disc diffusion method; format: functional; conditions: MTCC 281, 24 h, read-out: IZ

Compound	zone of inhibition at 50 µg/mL [mm]
CCOC(=O)c1c(-c2ccccc2)nn(-c2ccccc2)c1COCc1c(-c2ccc(F)cc2)nc(N(C)S(C)(=O)=O)nc1C(C)C	10

tested on: Bacillus cereus; test: Antibacterial activity against Bacillus cereus MTCC 8372 after 24 hrs by microdilution method; format: functional; conditions: MTCC 8372, 24 h

MIC [µg/mL]	Compound
15 (≈ 22.8 µM)	CCOC(=O)c1c(-c2ccccc2)nn(-c2ccccc2)c1COCc1c(-c2ccc(F)cc2)nc(N(C)S(C)(=O)=O)nc1C(C)C

tested on: Bacillus cereus; test: Antibacterial activity against Bacillus cereus MTCC 8372 assessed as concentration required to completely destroy test microorganisms after 24 hrs; format: functional; conditions: MTCC 8372, 24 h

Compound	MBC [µg/mL]
CCOC(=O)c1c(-c2ccccc2)nn(-c2ccccc2)c1COCc1c(-c2ccc(F)cc2)nc(N(C)S(C)(=O)=O)nc1C(C)C	150 (≈ 228 µM)

tested on: Staphylococcus aureus; test: Antibacterial activity against Staphylococcus aureus MTCC 96 after 24 hrs by microdilution method; format: functional; conditions: MTCC 96, 24 h

MIC [µg/mL]	Compound
40 (≈ 60.8 µM)	CCOC(=O)c1c(-c2ccccc2)nn(-c2ccccc2)c1COCc1c(-c2ccc(F)cc2)nc(N(C)S(C)(=O)=O)nc1C(C)C

tested on: Staphylococcus aureus; test: Antibacterial activity against Staphylococcus aureus MTCC 96 assessed as concentration required to completely destroy test microorganisms after 24 hrs; format: functional; conditions: MTCC 96, 24 h

Compound	MBC [µg/mL]
CCOC(=O)c1c(-c2ccccc2)nn(-c2ccccc2)c1COCc1c(-c2ccc(F)cc2)nc(N(C)S(C)(=O)=O)nc1C(C)C	190 (≈ 289 µM)

tested on: Escherichia coli; test: Antibacterial activity against Escherichia coli MTCC 724 after 24 hrs by microdilution method; format: functional; conditions: MTCC 724, 24 h

MIC [µg/mL]	Compound
35 (≈ 53.2 µM)	CCOC(=O)c1c(-c2ccccc2)nn(-c2ccccc2)c1COCc1c(-c2ccc(F)cc2)nc(N(C)S(C)(=O)=O)nc1C(C)C

tested on: Escherichia coli; test: Antibacterial activity against Escherichia coli MTCC 724 assessed as concentration required to completely destroy test microorganisms after 24 hrs; format: functional; conditions: MTCC 724, 24 h

Compound	MBC [µg/mL]
CCOC(=O)c1c(-c2ccccc2)nn(-c2ccccc2)c1COCc1c(-c2ccc(F)cc2)nc(N(C)S(C)(=O)=O)nc1C(C)C	280 (≈ 426 µM)

tested on: Klebsiella pneumoniae; test: Antibacterial activity against Klebsiella pneumoniae MTCC 3384 after 24 hrs by microdilution method; format: functional; conditions: MTCC 3384, 24 h

MIC [µg/mL]	Compound
30 (≈ 45.6 µM)	CCOC(=O)c1c(-c2ccccc2)nn(-c2ccccc2)c1COCc1c(-c2ccc(F)cc2)nc(N(C)S(C)(=O)=O)nc1C(C)C

tested on: Klebsiella pneumoniae; test: Antibacterial activity against Klebsiella pneumoniae MTCC 3384 assessed as concentration required to completely destroy test microorganisms after 24 hrs; format: functional; conditions: MTCC 3384, 24 h

Compound	MBC [µg/mL]
CCOC(=O)c1c(-c2ccccc2)nn(-c2ccccc2)c1COCc1c(-c2ccc(F)cc2)nc(N(C)S(C)(=O)=O)nc1C(C)C	240 (≈ 365 µM)

tested on: Aspergillus flavus; test: Antifungal activity against Aspergillus flavus MTCC 873 after 48 hrs by microdilution method; format: functional; conditions: MTCC 873, 48 h

MIC [µg/mL]	Compound
55 (≈ 83.6 µM)	CCOC(=O)c1c(-c2ccccc2)nn(-c2ccccc2)c1COCc1c(-c2ccc(F)cc2)nc(N(C)S(C)(=O)=O)nc1C(C)C

tested on: Aspergillus flavus; test: Antifungal activity against Aspergillus flavus MTCC 873 assessed as concentration required to completely destroy test microorganisms after 24 hrs; format: functional; conditions: MTCC 873, 24 h

Compound	MFC [µg/mL]
CCOC(=O)c1c(-c2ccccc2)nn(-c2ccccc2)c1COCc1c(-c2ccc(F)cc2)nc(N(C)S(C)(=O)=O)nc1C(C)C	300 (≈ 456 µM)

tested on: Aspergillus niger; test: Antifungal activity against Aspergillus niger MTCC 281 after 48 hrs by microdilution method; format: functional; conditions: MTCC 281, 48 h

MIC [µg/mL]	Compound
50 (≈ 76 µM)	CCOC(=O)c1c(-c2ccccc2)nn(-c2ccccc2)c1COCc1c(-c2ccc(F)cc2)nc(N(C)S(C)(=O)=O)nc1C(C)C

tested on: Aspergillus niger; test: Antifungal activity against Aspergillus niger MTCC 281 assessed as concentration required to completely destroy test microorganisms after 24 hrs; format: functional; conditions: MTCC 281, 24 h

Compound	MFC [µg/mL]
CCOC(=O)c1c(-c2ccccc2)nn(-c2ccccc2)c1COCc1c(-c2ccc(F)cc2)nc(N(C)S(C)(=O)=O)nc1C(C)C	280 (≈ 426 µM)

tested on: Aspergillus niger; test: Antifungal activity against Aspergillus niger MTCC 281 at 100 ug/ml after 24 hrs by disc diffusion method; format: functional; conditions: MTCC 281, 24 h, read-out: IZ

Compound	zone of inhibition at 100 µg/mL [mm]
CCOC(=O)c1c(-c2ccccc2)nn(-c2ccccc2)c1COCc1c(-c2ccc(F)cc2)nc(N(C)S(C)(=O)=O)nc1C(C)C	8

target: T1, Alpha amylase (Homo sapiens, UniProt P0DUB6); test: Inhibition of alpha-amylase (unknown origin) using starch as substrate after 30 mins by spectrophotometer analysis; conditions: not given
T1 sequence (P0DUB6 whole entry): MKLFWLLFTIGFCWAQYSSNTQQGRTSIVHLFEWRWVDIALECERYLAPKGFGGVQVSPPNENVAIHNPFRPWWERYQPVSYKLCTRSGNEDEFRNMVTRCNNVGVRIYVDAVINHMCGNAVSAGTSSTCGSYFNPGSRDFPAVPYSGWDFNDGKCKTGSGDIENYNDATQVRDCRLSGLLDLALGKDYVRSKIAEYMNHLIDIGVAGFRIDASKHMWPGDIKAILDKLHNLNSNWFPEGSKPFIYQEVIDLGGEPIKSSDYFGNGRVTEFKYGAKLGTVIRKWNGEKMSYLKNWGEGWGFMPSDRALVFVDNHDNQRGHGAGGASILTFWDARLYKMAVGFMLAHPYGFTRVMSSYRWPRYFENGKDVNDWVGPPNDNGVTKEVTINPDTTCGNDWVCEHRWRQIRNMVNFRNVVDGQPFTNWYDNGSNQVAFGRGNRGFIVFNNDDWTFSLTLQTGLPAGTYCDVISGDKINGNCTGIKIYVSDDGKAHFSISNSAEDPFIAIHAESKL

IC50 [µg/mL]	Compound
15 (≈ 22.8 µM)	CCOC(=O)c1c(-c2ccccc2)nn(-c2ccccc2)c1COCc1c(-c2ccc(F)cc2)nc(N(C)S(C)(=O)=O)nc1C(C)C

target: not listed separately; test: Inhibition of alpha-glucosidase (unknown origin) using p-nitrophenol glycoside as substrate after 30 mins by colorimetric analysis; set-up: species or system Homo sapiens; conditions: not given

IC50 [µg/mL]	Compound
25 (≈ 38 µM)	CCOC(=O)c1c(-c2ccccc2)nn(-c2ccccc2)c1COCc1c(-c2ccc(F)cc2)nc(N(C)S(C)(=O)=O)nc1C(C)C
